Reference: US20210116454A1, “METHODS FOR TREATING A HEMATOLOGICAL CANCER AND THE USE OF COMPANION BIOMARKERS FOR 2-(2,6-DIOXOPIPERIDIN-3-YL)-4-((2-FLUORO-4-((3-MORPHOLINOAZETIDIN-1-YL)METHYL)BENZYL)AMINO)ISOINDOLINE-1,3-DIONE” (CELGENE CORPORATION, priority 2019, published 2021)

Legend:
[1] = tested on: Peripheral blood mononuclear cells derived from four healthy donors; assay: Viability of CD3-stimulated PBMCs (Viobility Fixable Dye, flow cytometry); assay type: cell-based
Protocol: To establish that this was due to the effect of the compound in promoting Ikaros degradation and not because of a lack of cell proliferation or viability of the CD3-stimulated PBMCs, the effect of Compound 1 on their viability was assessed by flow cytometry. […] Peripheral blood mononuclear cells derived from four healthy donors were exposed to Compound 1 at concentrations of 0.1, 1, 10, or 100 nM for 3, 4, or 7 days, and viability was measured by staining with Viobility™ Fixable Dye. […] The trend in cell viability continued through day 7, with Compound 1 treatment not effecting the viability of the PBMCs.

SU-DHL-2 cells = assay: Western blot of substrate degradation by each enantiomer, short time-course; assay type: cell-based; conditions: SU-DHL-2, within 2 hours at 1 nM
Protocol: Pure samples of each enantiomer were tested for cellular degradation of substrate proteins measured over a short time-course (FIG. 16). SU-DHL-2 cells were treated for 1, 2, and 6 hours with vehicle control (0.1% DMSO), Compound 1 (1, 10, 100 nM), or Compound 2 (1, 10, 100 nM). Western blot analysis was used to evaluate the extent of degradation of the protein substrates Aiolos, Ikaros, and ZFP91. Compound 1 inhibited Aiolos, Ikaros, and ZFP91 in as early as 1 hour of treatment with as little as 1 nM.

BT system = assay: BioMAP BT system (B cells and PBMCs); assay type: cell-based, human; conditions: 0.01, 0.1, 1, and 10 μM
Protocol: (§1) The activity of Compound 1 was profiled in a panel of human primary cell-based assays, modeling complex tissue and disease biology of organs (vasculature, immune system, skin, lung) and general tissue biology using the BioMAP System (DiscoveRx, Fremont, Calif.).
(§2) The BioMAP System consists of twelve primary human monoculture or co-culture systems in stimulated and non-stimulated control conditions (FIG. 4, panel A). When tested at 0.01, 0.1, 1, and 10 μM, Compound 1 mediated changes in key biomarker activities. Specifically, the profiles for Compound 1 reflected selective anti-inflammatory and immunomodulatory impact on monocyte (LPS) and T cell dependent B cell activation responses (BT). Treatment with Compound 1 led to a decrease in interleukin 8 (IL-8), interleukin 1a (IL-1a), secreted prostaglandin E2 (sPGE2), and secreted tumor necrosis factor alpha (sTNFα) in the LPS system, which consisted of peripheral blood mononuclear cells (PBMCs) and endothelial cells. Furthermore, secreted IgG (sIgG), secreted interleukin 17A (sIL-17A), secreted interleukin 17F (sIL-17F), and sTNFα decreased, whereas secreted interleukin 2 (sIL-2) and secreted interleukin 6 (sIL-6) increased, in the BT system, which was comprised of B cells and PBMCs.

MyoF system = assay: BioMAP MyoF system (lung fibroblasts); assay type: cell-based, human; conditions: 0.01, 0.1, 1, and 10 μM
Protocol: as §1, §2

Ikaros [2] = target: T1, Ikaros (Homo sapiens, UniProt Q13422+Q96SW2); assay: Enzyme fragment complementation (EFC) degradation assay, DF15 cells expressing ePL-tagged substrate; assay type: cell-based; parameters: expressed in transfected cells; host or cells: DF15 cells; conditions: for Emax: DF15, DF15 ePL-Ikaros, remaining substrate; for DC50: DF15 ePL-Ikaros, read-out: Ikaros degradation EC50
Ikaros [3] = target: T1, Ikaros; assay: ePL-tagged substrate degradation kinetics in DF15 cells (enantiomer comparison); assay type: cell-based; parameters: expressed in transfected cells; host or cells: DF15 cells; Ikaros Y-constant: scale not given here; conditions: for DC50: read-out: Ikaros EC50
Protocol: In a second assay, DF15 cell lines expressing ePL-tagged target protein substrates were used as a model system to monitor protein degradation at 0.75, 1, 1.5, 3, 4, and 24 hours over a concentration range from 1 pM to 10 μM. The proteins evaluated were Ikaros (FIG. 17), Aiolos, and ZFP91. Compound 1 and Compound 2 were both able to degrade the substrate proteins at all time points (Table 9). In a further assay, additional time points were included to monitor the effect of treatment with Compound 1 and Compound 2.
The depth of substrate protein degradation described by the Y-constant was also measured in this assay against a negative control luciferase inhibitor (CC1071297, Y-constant=0).

DoxoR cell lines = assay: Doxorubicin-resistant (DoxoR) versus matching parental DLBCL lines; assay type: cell-based; conditions: DoxoR versus matching parental cells
Protocol: The activity of Compound 1 was also evaluated in cell lines with acquired resistance to doxorubicin (Table 4). Doxorubicin-resistant cell lines (DoxoR) were generated by culturing the parental cell lines in vitro with increasing concentrations of doxorubicin for a long period of time (˜9 to 18 months) until they were able to grow in the presence of a relatively high concentration of doxorubicin (1 μM). Matching parental (M-Parent) cells were generated by maintaining the parental cells in culture without treatment for the same amount of time (˜9 to 18 months). The growth-inhibitory effect of doxorubicin on parental cells and the corresponding resistant cells was evaluated by measuring the number of viable cells and extent of apoptosis by 7-AAD exclusion and Annexin V staining using flow cytometry.

T1 sequence (Q13422 whole entry, the tested form may be a part): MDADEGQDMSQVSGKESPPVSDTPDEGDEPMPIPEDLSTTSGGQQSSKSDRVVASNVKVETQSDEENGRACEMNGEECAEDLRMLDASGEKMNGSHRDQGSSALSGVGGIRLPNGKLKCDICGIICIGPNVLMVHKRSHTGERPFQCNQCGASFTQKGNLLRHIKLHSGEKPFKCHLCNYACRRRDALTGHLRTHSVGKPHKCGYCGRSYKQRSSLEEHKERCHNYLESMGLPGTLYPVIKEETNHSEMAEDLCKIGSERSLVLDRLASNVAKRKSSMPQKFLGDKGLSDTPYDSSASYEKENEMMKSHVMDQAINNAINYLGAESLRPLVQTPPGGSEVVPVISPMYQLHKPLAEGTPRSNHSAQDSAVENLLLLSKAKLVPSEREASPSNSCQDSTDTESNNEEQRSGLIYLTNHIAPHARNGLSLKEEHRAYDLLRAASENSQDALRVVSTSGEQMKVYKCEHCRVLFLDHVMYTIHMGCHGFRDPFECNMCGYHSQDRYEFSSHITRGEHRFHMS
T1 sequence (Q96SW2 whole entry, the tested form may be a part): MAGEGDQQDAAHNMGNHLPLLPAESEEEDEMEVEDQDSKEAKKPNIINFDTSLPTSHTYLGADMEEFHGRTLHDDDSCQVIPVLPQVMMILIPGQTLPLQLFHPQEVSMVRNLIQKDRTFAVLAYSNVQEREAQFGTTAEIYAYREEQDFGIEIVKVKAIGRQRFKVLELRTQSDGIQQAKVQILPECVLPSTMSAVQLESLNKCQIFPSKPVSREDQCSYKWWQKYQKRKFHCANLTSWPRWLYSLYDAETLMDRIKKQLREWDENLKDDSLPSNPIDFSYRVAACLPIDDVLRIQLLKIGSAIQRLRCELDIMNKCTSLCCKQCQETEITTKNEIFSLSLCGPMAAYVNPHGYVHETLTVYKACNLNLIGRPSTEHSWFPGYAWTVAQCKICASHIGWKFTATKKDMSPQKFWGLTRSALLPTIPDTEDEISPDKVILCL
T1 sequence (Q16531 whole entry partner, the tested form may be a part): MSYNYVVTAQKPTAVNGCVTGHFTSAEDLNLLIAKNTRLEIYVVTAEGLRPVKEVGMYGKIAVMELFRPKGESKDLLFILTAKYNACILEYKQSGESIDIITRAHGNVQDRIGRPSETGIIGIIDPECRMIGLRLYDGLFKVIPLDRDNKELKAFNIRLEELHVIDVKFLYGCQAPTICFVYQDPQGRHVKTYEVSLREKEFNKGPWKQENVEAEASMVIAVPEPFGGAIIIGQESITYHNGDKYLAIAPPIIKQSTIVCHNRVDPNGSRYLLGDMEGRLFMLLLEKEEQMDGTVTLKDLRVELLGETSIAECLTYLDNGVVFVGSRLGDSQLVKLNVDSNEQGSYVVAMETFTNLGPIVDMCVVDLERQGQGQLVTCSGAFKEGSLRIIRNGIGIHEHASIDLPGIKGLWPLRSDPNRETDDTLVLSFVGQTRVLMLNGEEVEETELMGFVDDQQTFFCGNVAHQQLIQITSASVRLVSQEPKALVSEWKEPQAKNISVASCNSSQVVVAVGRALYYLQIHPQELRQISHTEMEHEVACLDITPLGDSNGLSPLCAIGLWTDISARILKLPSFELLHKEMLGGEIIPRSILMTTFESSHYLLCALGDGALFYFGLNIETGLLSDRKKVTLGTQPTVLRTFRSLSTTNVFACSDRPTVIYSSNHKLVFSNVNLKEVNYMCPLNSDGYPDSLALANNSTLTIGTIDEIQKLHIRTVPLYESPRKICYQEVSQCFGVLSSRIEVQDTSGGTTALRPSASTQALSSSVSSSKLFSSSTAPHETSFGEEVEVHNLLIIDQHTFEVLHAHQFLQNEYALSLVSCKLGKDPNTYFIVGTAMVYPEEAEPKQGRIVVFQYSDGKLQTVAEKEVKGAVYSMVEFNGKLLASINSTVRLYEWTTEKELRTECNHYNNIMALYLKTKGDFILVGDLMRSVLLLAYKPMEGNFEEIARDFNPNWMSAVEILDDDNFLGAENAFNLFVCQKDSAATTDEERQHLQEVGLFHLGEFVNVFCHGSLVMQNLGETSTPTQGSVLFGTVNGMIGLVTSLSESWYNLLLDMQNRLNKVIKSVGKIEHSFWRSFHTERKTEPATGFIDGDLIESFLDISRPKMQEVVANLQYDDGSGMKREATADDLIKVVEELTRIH

O=C1CC[C@H](N2C(=O)c3cccc(NCc4ccc(CN5CC(N6CCOCC6)C5)cc4F)c3C2=O)C(=O)N1 [Compound 1, (S)-2-(2,6-dioxopiperidin-3-yl)-4-((2-fluoro-4-((3-morpholinoazetidin-1-yl)methyl)benzyl)amino)isoindoline-1,3-dione]
effect on PBMC viability ([1]; 0.1, 1, 10, or 100 nM for 3, 4, or 7 days): no significant effect
viable PBMCs ([1]; day 3 and day 4, 0.1, 1, 10, or 100 nM): roughly 80%
degradation of each of Aiolos, Ikaros, and ZFP91 (SU-DHL-2 cells): More than 50%
sIL-2 and sIL-6 (BT system): increased
sIgG, sIL-17A, sIL-17F, and sTNFα (BT system): decreased
collagen-I and -III expression (MyoF system): compelling inhibition
plasminogen activator inhibitor-1 (PAI-1) expression (MyoF system): slight inhibition
Emax (Ikaros [2]; 1 hour): 75.5%
Emax (Ikaros [2]; 2 hours): 33%
Emax (Ikaros [2]; 6 hours): 1.5%
Emax (Ikaros [2]; 24 hours): 0.03%
DC50 (Ikaros [2]; 1 hour): 0.6 nM
DC50 (Ikaros [2]; 2 hours): 0.8 nM
DC50 (Ikaros [2]; 6 hours): 0.5 nM
DC50 (Ikaros [2]; 24 hours): 0.4 nM
Ikaros Y-constant (Ikaros [3]; 0.75 hours): 39.3
DC50 (Ikaros [3]; 0.75 hours): 1.25 nM
Ikaros Y-constant (Ikaros [3]; 1 hour): 27.5
DC50 (Ikaros [3]; 1 hour): 1.01 nM
Ikaros Y-constant (Ikaros [3]; 1.5 hours): 12.5
DC50 (Ikaros [3]; 1.5 hours): 0.96 nM
Ikaros Y-constant (Ikaros [3]; 3 hours): 8.6
DC50 (Ikaros [3]; 3 hours): 0.81 nM
Ikaros Y-constant (Ikaros [3]; 4 hours): 6.8
DC50 (Ikaros [3]; 4 hours): 0.99 nM
Ikaros Y-constant (Ikaros [3]; 24 hours): 2.6
DC50 (Ikaros [3]; 24 hours): 0.35 nM

COc1cccc2c1C(=O)c1c(O)c3c(c(O)c1C2=O)C[C@@](O)(C(=O)CO)C[C@@H]3O[C@H]1C[C@H](N)[C@H](O)[C@H](C)O1 [Doxorubicin, reference compound]
shifts in IC50 values for doxorubicin in DoxoR lines (DoxoR cell lines): more than 100 fold
